# Measurements: ChEMBL document CHEMBL3885881, “DrugMatrix”
# Species: Rattus norvegicus
# Assay: DrugMatrix - Regimen: Daily Repeat
# Assay type: toxicity, organism-based, Sprague-Dawley
# Set-up: regimen Daily Repeat, gender Male, age 6-8 weeks
# Conditions: in vivo, ip, 50 mg/kg, route intraperitoneal, dose level High, […]; for ABSOLUTE BASOPHIL / ABSOLUTE EOSINOPHIL / ABSOLUTE LYMPHOCYTE / ABSOLUTE MONOCYTE / ABSOLUTE SEGMENTED NEUTROPHIL / BASOPHIL / EOSINOPHIL / ERYTHROCYTE COUNT / HEMATOCRIT / HEMOGLOBIN / LEUKOCYTE COUNT / LYMPHOCYTE / MEAN CORPUSCULAR HEMOGLOBIN / MEAN CORPUSCULAR HEMOGLOBIN CONCENTRATION / MEAN CORPUSCULAR VOLUME / MONOCYTE / NEUTROPHIL / NUCLEATED RED BLOOD CELLS / PLATELET COUNT: tissue Blood; for ALANINE AMINOTRANSFERASE / ALBUMIN / ALKALINE PHOSPHATASE / ASPARTATE AMINOTRANSFERASE / BLOOD UREA NITROGEN / CARBON DIOXIDE / CHLORIDE / CHOLESTEROL / CREATININE / GLUCOSE / LACTATE DEHYDROGENASE / LIPASE / PHOSPHORUS / POTASSIUM / SODIUM / TOTAL BILIRUBIN / TOTAL PROTEIN / URIC ACID: tissue Plasma
compound,measurement,setting,value
ClC(Cl)=C(Cl)C(Cl)=C(Cl)Cl [HEXACHLOROBUTADIENE],ABSOLUTE BASOPHIL,"72 h, time 3 day",0 CELLS/uL
same,ABSOLUTE EOSINOPHIL,"72 h, time 3 day",265.33 CELLS/uL
same,ABSOLUTE LYMPHOCYTE,"72 h, time 3 day",14659.33 CELLS/uL
same,ABSOLUTE MONOCYTE,"72 h, time 3 day",513.33 CELLS/uL
same,ABSOLUTE SEGMENTED NEUTROPHIL,"72 h, time 3 day",2862 CELLS/uL
same,BASOPHIL,"72 h, time 3 day",0%
same,EOSINOPHIL,"72 h, time 3 day",1.33%
same,ERYTHROCYTE COUNT,"72 h, time 3 day",6.15 x10E6/uL
same,HEMATOCRIT,"72 h, time 3 day",36.87%
same,HEMOGLOBIN,"72 h, time 3 day",13.3 G/DL
same,LEUKOCYTE COUNT,"72 h, time 3 day",18.3 x10E3/uL
same,LYMPHOCYTE,"72 h, time 3 day",80.67%
same,MEAN CORPUSCULAR HEMOGLOBIN,"72 h, time 3 day",21.63 pg
same,MEAN CORPUSCULAR HEMOGLOBIN CONCENTRATION,"72 h, time 3 day",36.1 G/DL
same,MEAN CORPUSCULAR VOLUME,"72 h, time 3 day",60 fL
same,MONOCYTE,"72 h, time 3 day",2.67%
same,NEUTROPHIL,"72 h, time 3 day",15.33%
same,NUCLEATED RED BLOOD CELLS,"72 h, time 3 day",0 /100WBC
same,PLATELET COUNT,"72 h, time 3 day",1031 x10E3/uL
same,ALANINE AMINOTRANSFERASE,"72 h, time 3 day",36.33 u/L
same,ALBUMIN,"72 h, time 3 day",4.23 G/DL
same,ALKALINE PHOSPHATASE,"72 h, time 3 day",328.33 u/L
same,ASPARTATE AMINOTRANSFERASE,"72 h, time 3 day",101 u/L
same,BLOOD UREA NITROGEN,"72 h, time 3 day",11.67 mg/dL
same,CARBON DIOXIDE,"72 h, time 3 day",30.33 mmol/L
same,CHLORIDE,"72 h, time 3 day",102 MEQ/L
same,CHOLESTEROL,"72 h, time 3 day",84.67 mg/dL
same,CREATININE,"72 h, time 3 day",0.16 mg/dL
same,GLUCOSE,"72 h, time 3 day",173 mg/dL
same,LACTATE DEHYDROGENASE,"72 h, time 3 day",166 u/L
same,LIPASE,"72 h, time 3 day",9.67 u/L
same,PHOSPHORUS,"72 h, time 3 day",11.6 mg/dL
same,POTASSIUM,"72 h, time 3 day",6.25 MEQ/L
same,SODIUM,"72 h, time 3 day",147.3 MEQ/L
same,TOTAL BILIRUBIN,"72 h, time 3 day",0.13 mg/dL
same,TOTAL PROTEIN,"72 h, time 3 day",6.3 G/DL
same,URIC ACID,"72 h, time 3 day",2.6 mg/dL
same,ABSOLUTE BASOPHIL,"120 h, time 5 day",0 CELLS/uL
same,ABSOLUTE EOSINOPHIL,"120 h, time 5 day",230 CELLS/uL
same,ABSOLUTE LYMPHOCYTE,"120 h, time 5 day",9645 CELLS/uL
same,ABSOLUTE MONOCYTE,"120 h, time 5 day",302 CELLS/uL
same,ABSOLUTE SEGMENTED NEUTROPHIL,"120 h, time 5 day",1323 CELLS/uL
same,BASOPHIL,"120 h, time 5 day",0%
same,EOSINOPHIL,"120 h, time 5 day",2%
same,ERYTHROCYTE COUNT,"120 h, time 5 day",5.76 x10E6/uL
same,HEMATOCRIT,"120 h, time 5 day",36.65%
same,HEMOGLOBIN,"120 h, time 5 day",13.3 G/DL
same,LEUKOCYTE COUNT,"120 h, time 5 day",11.5 x10E3/uL
same,LYMPHOCYTE,"120 h, time 5 day",84.5%
same,MEAN CORPUSCULAR HEMOGLOBIN,"120 h, time 5 day",23.1 pg
same,MEAN CORPUSCULAR HEMOGLOBIN CONCENTRATION,"120 h, time 5 day",36.25 G/DL
same,MEAN CORPUSCULAR VOLUME,"120 h, time 5 day",63.6 fL
same,MONOCYTE,"120 h, time 5 day",2.5%
same,NEUTROPHIL,"120 h, time 5 day",11%
same,NUCLEATED RED BLOOD CELLS,"120 h, time 5 day",0 /100WBC
same,PLATELET COUNT,"120 h, time 5 day",1216 x10E3/uL
same,ALANINE AMINOTRANSFERASE,"120 h, time 5 day",39 u/L
same,ALBUMIN,"120 h, time 5 day",4.3 G/DL
same,ALKALINE PHOSPHATASE,"120 h, time 5 day",279.5 u/L
same,ASPARTATE AMINOTRANSFERASE,"120 h, time 5 day",100.5 u/L
same,BLOOD UREA NITROGEN,"120 h, time 5 day",11.5 mg/dL
same,CARBON DIOXIDE,"120 h, time 5 day",32.5 mmol/L
same,CHLORIDE,"120 h, time 5 day",101 MEQ/L
same,CHOLESTEROL,"120 h, time 5 day",106 mg/dL
same,CREATININE,"120 h, time 5 day",0.19 mg/dL
same,GLUCOSE,"120 h, time 5 day",171.5 mg/dL
same,LACTATE DEHYDROGENASE,"120 h, time 5 day",160.5 u/L
same,LIPASE,"120 h, time 5 day",9.5 u/L
same,PHOSPHORUS,"120 h, time 5 day",13.95 mg/dL
same,POTASSIUM,"120 h, time 5 day",6 MEQ/L
same,SODIUM,"120 h, time 5 day",147.1 MEQ/L
same,TOTAL BILIRUBIN,"120 h, time 5 day",0.2 mg/dL
same,TOTAL PROTEIN,"120 h, time 5 day",6.6 G/DL
same,URIC ACID,"120 h, time 5 day",1.75 mg/dL
same,ABSOLUTE BASOPHIL,time 14 day,0 CELLS/uL
same,ABSOLUTE EOSINOPHIL,time 14 day,146.4 CELLS/uL
same,ABSOLUTE LYMPHOCYTE,time 14 day,11678.6 CELLS/uL
same,ABSOLUTE MONOCYTE,time 14 day,306.2 CELLS/uL
same,ABSOLUTE SEGMENTED NEUTROPHIL,time 14 day,1488.8 CELLS/uL
same,BASOPHIL,time 14 day,0%
same,EOSINOPHIL,time 14 day,1.2%
same,ERYTHROCYTE COUNT,time 14 day,6.11 x10E6/uL
same,HEMATOCRIT,time 14 day,35.9%
same,HEMOGLOBIN,time 14 day,13.2 G/DL
same,LEUKOCYTE COUNT,time 14 day,13.62 x10E3/uL
same,LYMPHOCYTE,time 14 day,86.4%
same,MEAN CORPUSCULAR HEMOGLOBIN,time 14 day,21.6 pg
same,MEAN CORPUSCULAR HEMOGLOBIN CONCENTRATION,time 14 day,36.82 G/DL
same,MEAN CORPUSCULAR VOLUME,time 14 day,58.64 fL
same,MONOCYTE,time 14 day,2.2%
same,NEUTROPHIL,time 14 day,10.2%
same,NUCLEATED RED BLOOD CELLS,time 14 day,0 /100WBC
same,PLATELET COUNT,time 14 day,1058.6 x10E3/uL
same,ALANINE AMINOTRANSFERASE,time 14 day,31.2 u/L
same,ALBUMIN,time 14 day,4.2 G/DL
same,ALKALINE PHOSPHATASE,time 14 day,238.6 u/L
same,ASPARTATE AMINOTRANSFERASE,time 14 day,99.6 u/L
same,BLOOD UREA NITROGEN,time 14 day,13.8 mg/dL
same,CARBON DIOXIDE,time 14 day,30.8 mmol/L
same,CHLORIDE,time 14 day,102 MEQ/L
same,CHOLESTEROL,time 14 day,83.6 mg/dL
same,CREATININE,time 14 day,0.2 mg/dL
same,GLUCOSE,time 14 day,149.2 mg/dL
same,LACTATE DEHYDROGENASE,time 14 day,133.2 u/L
same,LIPASE,time 14 day,10.4 u/L
same,PHOSPHORUS,time 14 day,9.96 mg/dL
same,POTASSIUM,time 14 day,5.75 MEQ/L
same,SODIUM,time 14 day,145.2 MEQ/L
same,TOTAL BILIRUBIN,time 14 day,0.18 mg/dL
same,TOTAL PROTEIN,time 14 day,6.18 G/DL
same,URIC ACID,time 14 day,1 mg/dL
